According to patent US7192746B2, “α-Isomaltosyltransferase, process for producing the same and use thereof” (Kabushiki Kaisha Hayashibara Seibutsu Kagaku Kenkyujo, priority 2000, dated 2007):

Test system: Clostridium perfringens JCM 3816 strain
Format: cell-based
Settings: PYF medium with 0.5% saccharide, 37° C., four days, anaerobic

In the case of `OCC1OC2OCC3O[C@H](O[C@H]4C(O)C(CO)OC(OCC5O[C@H](O[C@@H](C1O)C2O)C(O)C(O)[C@@H]5O)C4O)C(O)C(O)[C@@H]3O` (stereo partly drawn) [Cyclotetrasaccharide, cyclo{→6)-α-D-glucopyranosyl-(1→3)-α-D-glucopyranosyl-(1→6)-α-D-glucopyranosyl-(1→3)-α-D-glucopyranosyl-(1→}], the Assimilability is reported as “− (negative (−) when the post culture had a pH of 6.0 or higher)”.
